Paper PMC11700842 (The Journal of Antibiotics, 2024)
Converted amounts (≈) assume the structure as drawn. Where two headings read alike, the source gives them in different places.

Tests used:
[1] = tested on: M. bovis BCG membrane electric potential; type: cell-based
[2] = biological target: T1, human dopamine transporter (Homo sapiens, UniProt Q01959); assay: cell-based; type: cell-based; conditions: for IC50: CHO cells transfected with human dopamine transporter, 0.3 µM [3H] dopamine, 90 min, read-out: IC50 against dopamine transporter; for IC50 / inhibition at 0.1 µM: N = 3; for inhibition at 0.1 µM: CHO, dopamine transporter uptake, 100 nM
T1 construct: host or cells: Chinese hamster ovary (CHO) cells
T1 sequence (Q01959 whole entry): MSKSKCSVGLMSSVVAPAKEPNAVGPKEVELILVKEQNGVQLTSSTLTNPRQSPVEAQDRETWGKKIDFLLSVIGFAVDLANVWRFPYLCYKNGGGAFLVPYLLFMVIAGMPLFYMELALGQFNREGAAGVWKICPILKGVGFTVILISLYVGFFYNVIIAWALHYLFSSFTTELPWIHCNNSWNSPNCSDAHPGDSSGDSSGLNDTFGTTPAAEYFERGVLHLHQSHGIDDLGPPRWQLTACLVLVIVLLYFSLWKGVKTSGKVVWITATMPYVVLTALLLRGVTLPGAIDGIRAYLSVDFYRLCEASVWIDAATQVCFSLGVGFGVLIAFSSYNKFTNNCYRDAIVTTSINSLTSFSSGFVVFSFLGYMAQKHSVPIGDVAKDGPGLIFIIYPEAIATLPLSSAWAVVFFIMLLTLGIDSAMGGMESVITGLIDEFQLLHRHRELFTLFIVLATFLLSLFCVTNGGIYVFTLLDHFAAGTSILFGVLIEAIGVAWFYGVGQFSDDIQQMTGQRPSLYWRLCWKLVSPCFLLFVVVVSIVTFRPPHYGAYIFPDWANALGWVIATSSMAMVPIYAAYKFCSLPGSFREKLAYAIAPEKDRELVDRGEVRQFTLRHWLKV
Protocol: This assay was performed by Eurofins Discovery and is based on a reported method. […] Following incubation, the amount of [^3H] dopamine was quantified using a scintillation counter (Topcount, Packard). The results were expressed as a percentage inhibition relative to the control uptake of [^3H] dopamine.
In this assay, five concentrations of each analogue were tested, in triplicate, ranging from 10 µM to 100 nM (Supplementary Fig. S2).
26 Supplementary Figure S2: Dopamine transporter uptake assays monitoring
The uptake of [3H] dopamine into Chinese
28 hamster ovary cells, transfected with the human dopamine transporter, was used to […]

dopamine transporter [3] = tested on: dopamine transporter; design: method as in PMID 28274674; conditions: human embryonic kidney 293 cells; 20 nM [3H] dopamine over 5 min at 37 °C; read-out: IC50 against the dopamine transporter; cited from earlier work
M. smegmatis [4] = assay: Ethidium bromide accumulation assay in M. smegmatis; type: cell-based; conditions: analogues 100 µM, verapamil 102 µM, with glucose; for % Change in fluorescence (accumulation): end of 60 min assay; for Rate of accumulation (ethidium bromide): rate from 5–14 minutes
E. faecium E745 = assay: microbe, parasite or virus in culture; type: cell-based; conditions: Enterococcus faecium, E745, 24 h, read-out: MIC99 E. faecium E745
M. bovis BCG [5] = type: cell-based; conditions: analogues 100 µM, verapamil 102 µM, with glucose; for % Change in fluorescence (accumulation): end of 60 min assay; for Rate of accumulation (ethidium bromide): rate from 5–14 minutes
M. smegmatis [6] = assay: Ethidium bromide efflux assay in M. smegmatis; type: cell-based; conditions: for % Change in fluorescence (efflux) / Rate of efflux (ethidium bromide): analogues 100 µM, verapamil 102 µM, with glucose; for % Change in fluorescence (efflux): end of 60 min assay; for Rate of efflux (ethidium bromide): rate from 0–9 minutes
M. bovis BCG [7] = type: cell-based; conditions: analogues 100 µM, verapamil 102 µM, with glucose; for % Change in fluorescence (efflux): end of 60 min assay; for Rate of efflux (ethidium bromide): rate from 0–9 minutes
dopamine transporter [8] = type: cell-based; conditions: based on IC50 from Paudel et al.
M. smegmatis [9] = assay: MIC determination (resazurin) against M. smegmatis; type: cell-based, M. smegmatis mc^2155; conditions: Mycolicibacterium smegmatis; lowest concentration reducing growth to 1% or less; 21 h + 3 h resazurin; N = 3
[10] = three patients with structural heart disease; cited from earlier work
Streptococcus pneumoniae = tested on: Streptococcus pneumoniae; design: method as in PMID 36982905; conditions: cited from earlier work
[11] = M. bovis BCG, test compounds 100 µM, CCCP 25 µM, Fig. 3

| Compound | impact on membrane electric potential (in words) [1] | IC50 [2] [nM] | inhibition at 0.1 µM [2] [%] | difference between MIC99 against M. bovis BCG and IC50 against the dopamine transporter ([2]; based on data of this study) [×] | impact on membrane electric potential (in words) [1, 11] | IC50 (dopamine transporter [3]) [nM] | % Change in fluorescence (accumulation) (M. smegmatis [4]) [%] | Rate of accumulation (ethidium bromide) (M. smegmatis [4]) [RFUs/min] | MIC99 (E. faecium E745) [µM] | % Change in fluorescence (accumulation) (M. bovis BCG [5]) [%] | Rate of accumulation (ethidium bromide) (M. bovis BCG [5]) [RFUs/min] | % Change in fluorescence (efflux) (M. smegmatis [6]) | Rate of efflux (ethidium bromide) (M. smegmatis [6]) | % Change in fluorescence (efflux) (M. bovis BCG [7]) | Rate of efflux (ethidium bromide) (M. bovis BCG [7]) | difference between MIC99 against M. bovis BCG and IC50 against the dopamine transporter (dopamine transporter [8]) [×] | MIC99 (M. smegmatis [9]) [µM] | effect on ethidium bromide efflux (in words) (M. smegmatis [6]; 100 µM) | adverse cardiac event in phase III clinical trial [10] | activity against Streptococcus pneumoniae (in words) (Streptococcus pneumoniae) |
| --- | --- | --- | --- | --- | --- | --- | --- | --- | --- | --- | --- | --- | --- | --- | --- | --- | --- | --- | --- | --- |
| N#CC(C#N)=NNc1cccc(Cl)c1 [CCCP, Carbonyl cyanide m-chlorophenyl hydrazone, reference compound] | greatest loss of electric potential | – | – | – | – | – | – | – | – | – | – | – | – | – | – | – | – | – | – | – |
| Fc1ccc(C(OCCN2CCC(Cc3ccccc3)CC2)c2ccc(F)cc2)cc1 [Compound 3] | – | 140 | 35.8 | 179 | greater impact than vanoxerine | 6800 | 286 ± 1 | 3000 ± 100 | 25 (≈ 10.5 µg/mL) | 67 ± 1 | 480 ± 300 | –11 ± 0.1% | –1400 ± 200 RFUs/min | –18 ± 6% | –1300 ± 200 RFUs/min | 3.7 | 50 | – | – | – |
| Fc1ccc(C(OCCN2CCNCC2)c2ccc(F)cc2)cc1 [Compound 4] | – | – | – | – | – | – | 57 ± 6 | 2700 ± 310 | > 100 | 46 ± 2 | 800 ± 2000 | –57 ± 0.1% | –4500 ± 400 RFUs/min | –16 ± 0.4% | –1000 ± 800 RFUs/min | – | > 100 | – | – | – |
| Fc1ccc(CN2CCN(CCOC(c3ccc(F)cc3)c3ccc(F)cc3)CC2)cc1 [Compound 5] | – | – | – | – | – | – | 175 ± 4 | 1300 ± 20 | > 100 | 39 ± 1 | 130 ± 130 | –25 ± 0.2% | –1700 ± 200 RFUs/min | –20 ± 0.02% | –1500 ± 50 RFUs/min | – | > 100 | – | – | – |
| Oc1ccc(CN2CCN(CCOC(c3ccc(F)cc3)c3ccc(F)cc3)CC2)cc1 [Compound 6] | – | – | – | – | – | – | 75 ± 2 | 1100 ± 40 | > 100 | 36 ± 3 | 140 ± 480 | –49 ± 0.3% | –2500 ± 200 RFUs/min | –21 ± 0.2% | –1400 ± 330 RFUs/min | – | > 100 | – | – | – |
| Fc1ccc(C(OCCN2CCN(CC3CCCCC3)CC2)c2ccc(F)cc2)cc1 [Compound 7] | – | – | – | – | – | – | 94 ± 2 | 1000 ± 16 | 100 (≈ 42.9 µg/mL) | 32 ± 1 | 120 ± 90 | –43 ± 0.2% | –2200 ± 60 RFUs/min | –21 ± 0.1% | –1600 ± 100 RFUs/min | – | 100 | – | – | – |
| O=C(c1ccccc1)N1CCN(CCOC(c2ccc(F)cc2)c2ccc(F)cc2)CC1 [Compound 8] | – | – | – | – | – | – | 37 ± 2 | 600 ± 30 | > 100 | 26 ± 2 | 120 ± 460 | –63 ± 0.1% | –4300 ± 400 RFUs/min | –26 ± 0.2% | –1799 ± 400 RFUs/min | – | > 100 | – | – | – |
| OC(CCN1CCN(CCOC(c2ccc(F)cc2)c2ccc(F)cc2)CC1)c1ccccc1 (stereo not drawn) [Compound 9] | – | < 100 | 98.2 | – | greater impact than vanoxerine | – | 349 ± 1 | 4500 ± 40 | > 100 | 68 ± 1 | 1100 ± 1000 | –11 ± 0.1% | –1100 ± 110 RFUs/min | –16 ± 0.4% | –1200 ± 600 RFUs/min | – | 100 | – | – | – |
| C#CCOC(CCN1CCN(CCOC(c2ccc(F)cc2)c2ccc(F)cc2)CC1)c1ccccc1 (stereo not drawn) [Compound 10] | – | < 100 | 95 | – | greater impact than vanoxerine | – | 323 ± 7 | 4500 ± 260 | > 100 | 66 ± 1 | 1200 ± 700 | –13 ± 0.1% | –1200 ± 200 RFUs/min | –13 ± 0.3% | –940 ± 700 RFUs/min | – | 100 | – | – | – |
| CCCCCCCCCC(=O)OC(CCN1CCN(CCOC(c2ccc(F)cc2)c2ccc(F)cc2)CC1)c1ccccc1 (stereo not drawn) [Compound 11] | – | – | – | – | no impact on the electric potential | – | 39 ± 2 | 1000 ± 160 | > 100 | 45 ± 1 | 400 ± 300 | –59 ± 0.1% | –5600 ± 160 RFUs/min | –28 ± 25% | –1900 ± 400 RFUs/min | – | > 100 | no effect on ethidium bromide efflux | – | – |
| c1ccc(CCCN2CCN(CCOC(c3ccccc3)c3ccccc3)CC2)cc1 [GBR12935, 1-[2-(Diphenylmethoxy)ethyl]-4-(3-phenylpropyl)piperazine, reference compound] | – | – | – | – | – | – | 90 ± 3 | 1100 ± 40 | > 100 | 34 ± 2 | 160 ± 240 | –37 ± 0.2% | –2000 ± 100 RFUs/min | –16 ± 0.1% | –1300 ± 150 RFUs/min | – | 100 | – | – | – |
| Fc1ccc(C(OCCN2CCN(CCCc3ccccc3)CC2)c2ccc(F)cc2)cc1 [vanoxerine, 1-[2-[Bis(4-fluorophenyl)methoxy]ethyl]-4-(3-phenylpropyl)piperazine, reference compound] | – | – | – | – | – | […] | 299 ± 3 | 3000 ± 130 | 44 (≈ 19.8 µg/mL) | 48 ± 3 | 490 ± 800 | –11 ± 0.5% | –1100 ± 500 RFUs/min | –15 ± 1% | –1100 ± 950 RFUs/min | – | 50 | – | caused ventricular pro-arrhythmia | inhibited Streptococcus pneumoniae |
| COc1ccc(CCN(C)CCCC(C#N)(c2ccc(OC)c(OC)c2)C(C)C)cc1OC (stereo not drawn) [verapamil, reference compound] | – | – | – | – | – | – | 210 ± 7 | 2900 ± 140 | – | 52 ± 6 | 640 ± 1400 | – | – | – | – | – | – | – | – | – |
